In PubChem BioAssay (NCI):
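Values below derive from 48-hour exposures of cells grown in 96-well plates, with endpoints linearly interpolated between the two concentrations bracketing the appropriate inhibition level. The concentration for 50% growth inhibition is given as GI50. TGI marks complete inhibition of growth.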

How the values were obtained:
Test in all cases: NCI tumour cell line growth inhibition, 48 h
SF-268 CNS = test system: SF-268 CNS
UACC-257 melanoma = test system: UACC-257 melanoma
SK-MEL-5 melanoma = test system: SK-MEL-5 melanoma
HL-60(TB) leukemia = test system: HL-60(TB) leukemia
MALME-3M melanoma = test system: MALME-3M melanoma
MCF7 breast = test system: MCF7 breast
LOX IMVI melanoma = test system: LOX IMVI melanoma
BT-549 breast = test system: BT-549 breast
NCI-H226 lung = test system: NCI-H226 lung
OVCAR-5 ovarian = test system: OVCAR-5 ovarian
EKVX NSCLC = test system: EKVX NSCLC
K-562 leukemia = test system: K-562 leukemia
SNB-19 CNS = test system: SNB-19 CNS
SK-MEL-28 melanoma = test system: SK-MEL-28 melanoma
DU-145 prostate = test system: DU-145 prostate
HCT-116 colon = test system: HCT-116 colon
RPMI-8226 leukemia = test system: RPMI-8226 leukemia
MDA-MB-231 breast = test system: MDA-MB-231 breast
MDA-MB-435 = test system: MDA-MB-435
OVCAR-3 ovarian = test system: OVCAR-3 ovarian
KM12 colon = test system: KM12 colon
HOP-92 NSCLC = test system: HOP-92 NSCLC
HS 578T breast = test system: HS 578T breast
ACHN renal = test system: ACHN renal
MOLT-4 leukemia = test system: MOLT-4 leukemia
SN12C renal = test system: SN12C renal
SF-295 CNS = test system: SF-295 CNS
NCI/ADR-RES ovarian = test system: NCI/ADR-RES ovarian
IGROV1 ovarian = test system: IGROV1 ovarian
A498 renal = test system: A498 renal
TK-10 renal = test system: TK-10 renal
SW-620 colon = test system: SW-620 colon
CAKI-1 renal = test system: CAKI-1 renal
SK-OV-3 ovarian = test system: SK-OV-3 ovarian
U251 CNS = test system: U251 CNS
HCT-15 colon = test system: HCT-15 colon
M14 melanoma = test system: M14 melanoma
SF-539 CNS = test system: SF-539 CNS
NCI-H460 lung = test system: NCI-H460 lung
SK-MEL-2 melanoma = test system: SK-MEL-2 melanoma
SNB-75 CNS = test system: SNB-75 CNS
NCI-H23 lung = test system: NCI-H23 lung
SR leukemia = test system: SR leukemia
OVCAR-8 ovarian = test system: OVCAR-8 ovarian
PC-3 prostate = test system: PC-3 prostate
CCRF-CEM leukemia = test system: CCRF-CEM leukemia
786-0 renal = test system: 786-0 renal
COLO 205 colon = test system: COLO 205 colon
A549 NSCLC = test system: A549 NSCLC
HT29 colon = test system: HT29 colon
T-47D breast = test system: T-47D breast
RXF 393 renal = test system: RXF 393 renal
UACC-62 melanoma = test system: UACC-62 melanoma
HCC-2998 colon = test system: HCC-2998 colon
OVCAR-4 ovarian = test system: OVCAR-4 ovarian
HOP-62 NSCLC = test system: HOP-62 NSCLC
UO-31 renal = test system: UO-31 renal
NCI-H522 lung = test system: NCI-H522 lung

## COC1=C(OC)C(=O)C(Sc2ccc3ccccc3c2)=CC1=O
SF-268 CNS
  TGI: 36.3 µM
UACC-257 melanoma
  TGI: 22.2 µM
SK-MEL-5 melanoma
  TGI: 13.9 µM
HL-60(TB) leukemia
  TGI: 3.35 µM
MALME-3M melanoma
  TGI: 28.4 µM
MCF7 breast
  TGI: 43.9 µM
LOX IMVI melanoma
  TGI: 30.6 µM
BT-549 breast
  TGI: 22.5 µM
NCI-H226 lung
  TGI: 27.2 µM
OVCAR-5 ovarian
  TGI: 37.2 µM
EKVX NSCLC
  TGI: 30.5 µM
K-562 leukemia
  TGI: 10.3 µM
SNB-19 CNS
  TGI: 32.4 µM
SK-MEL-28 melanoma
  TGI: 41.5 µM
DU-145 prostate
  TGI: 33.7 µM
HCT-116 colon
  TGI: 25.9 µM
RPMI-8226 leukemia
  TGI: 5.78 µM
MDA-MB-231 breast
  TGI: 32.9 µM
MDA-MB-435
  TGI: 29.8 µM
OVCAR-3 ovarian
  TGI: 32.7 µM
KM12 colon
  TGI: 21.2 µM
HOP-92 NSCLC
  TGI: 45.6 µM
HS 578T breast
  TGI: 53.4 µM
ACHN renal
  TGI: 23.6 µM
MOLT-4 leukemia
  TGI: 4.86 µM
SN12C renal
  TGI: 26.5 µM
SF-295 CNS
  TGI: 23.8 µM
NCI/ADR-RES ovarian
  TGI: 69.6 µM
IGROV1 ovarian
  TGI: 39 µM
A498 renal
  TGI: 29.6 µM
TK-10 renal
  TGI: 27 µM
SW-620 colon
  TGI: > 61 µM
CAKI-1 renal
  TGI: 32.8 µM
SK-OV-3 ovarian
  TGI: 31.7 µM
U251 CNS
  TGI: 21.4 µM
HCT-15 colon
  TGI: 44.7 µM
M14 melanoma
  TGI: 21.8 µM
SF-539 CNS
  TGI: > 57.7 µM
NCI-H460 lung
  TGI: 43.4 µM
SK-MEL-2 melanoma
  TGI: 31.4 µM
SNB-75 CNS
  TGI: 29.8 µM
NCI-H23 lung
  TGI: 33.1 µM
SR leukemia
  TGI: 7.95 µM
OVCAR-8 ovarian
  TGI: 82.4 µM
PC-3 prostate
  TGI: 26.1 µM
CCRF-CEM leukemia
  TGI: 4.31 µM
786-0 renal
  TGI: 16.3 µM
COLO 205 colon
  TGI: 23.7 µM
A549 NSCLC
  TGI: 32.3 µM
HT29 colon
  TGI: 37.8 µM
T-47D breast
  TGI: 35.8 µM
RXF 393 renal
  TGI: 22.1 µM
UACC-62 melanoma
  TGI: 20.5 µM
HCC-2998 colon
  TGI: 26.1 µM
OVCAR-4 ovarian
  TGI: 48.5 µM
HOP-62 NSCLC
  TGI: 32.7 µM
UO-31 renal
  TGI: 16.3 µM

## NC1=NC(=O)/C(=C/c2ccc3ncccc3c2)S1
SF-268 CNS
  GI50: > 25 µM
  TGI: > 25 µM
UACC-257 melanoma
  GI50: > 25 µM
  TGI: > 25 µM
SK-MEL-5 melanoma
  GI50: > 25 µM
  TGI: > 25 µM
HL-60(TB) leukemia
  GI50: > 25 µM
  TGI: > 25 µM
MALME-3M melanoma
  GI50: > 25 µM
  TGI: > 25 µM
MCF7 breast
  GI50: > 12.2 µM
  TGI: > 25 µM
LOX IMVI melanoma
  GI50: > 25 µM
  TGI: > 25 µM
BT-549 breast
  GI50: > 18.8 µM
  TGI: > 25 µM
NCI-H226 lung
  GI50: > 25 µM
  TGI: > 25 µM
OVCAR-5 ovarian
  GI50: > 25 µM
  TGI: > 25 µM
K-562 leukemia
  GI50: > 25 µM
  TGI: > 25 µM
SNB-19 CNS
  GI50: > 25 µM
  TGI: > 25 µM
SK-MEL-28 melanoma
  GI50: > 25 µM
  TGI: > 25 µM
DU-145 prostate
  GI50: > 25 µM
  TGI: > 25 µM
NCI-H522 lung
  GI50: > 18.4 µM
  TGI: > 25 µM
HCT-116 colon
  GI50: > 13.8 µM
  TGI: > 25 µM
RPMI-8226 leukemia
  GI50: > 25 µM
  TGI: > 25 µM
MDA-MB-231 breast
  GI50: > 25 µM
  TGI: > 25 µM
MDA-MB-435
  GI50: > 10.9 µM
  TGI: > 25 µM
OVCAR-3 ovarian
  GI50: > 25 µM
  TGI: > 25 µM
KM12 colon
  GI50: > 25 µM
  TGI: > 25 µM
HOP-92 NSCLC
  GI50: > 25 µM
  TGI: > 25 µM
HS 578T breast
  GI50: > 25 µM
  TGI: > 25 µM
ACHN renal
  GI50: > 25 µM
  TGI: > 25 µM
MOLT-4 leukemia
  GI50: > 25 µM
  TGI: > 25 µM
SN12C renal
  GI50: > 25 µM
  TGI: > 25 µM
SF-295 CNS
  GI50: > 25 µM
  TGI: > 25 µM
NCI/ADR-RES ovarian
  GI50: > 25 µM
  TGI: > 25 µM
IGROV1 ovarian
  GI50: > 25 µM
  TGI: > 25 µM
A498 renal
  GI50: > 17.3 µM
  TGI: > 25 µM
TK-10 renal
  GI50: > 25 µM
  TGI: > 25 µM
SW-620 colon
  GI50: > 25 µM
  TGI: > 25 µM
CAKI-1 renal
  GI50: > 25 µM
  TGI: > 25 µM
SK-OV-3 ovarian
  GI50: > 25 µM
  TGI: > 25 µM
U251 CNS
  GI50: > 25 µM
  TGI: > 25 µM
HCT-15 colon
  GI50: > 25 µM
  TGI: > 25 µM
M14 melanoma
  GI50: > 25 µM
  TGI: > 25 µM
SF-539 CNS
  GI50: > 25 µM
  TGI: > 25 µM
NCI-H460 lung
  GI50: > 25 µM
  TGI: > 25 µM
SK-MEL-2 melanoma
  GI50: > 20.7 µM
  TGI: > 25 µM
SNB-75 CNS
  GI50: > 25 µM
  TGI: > 25 µM
NCI-H23 lung
  GI50: > 25 µM
  TGI: > 25 µM
SR leukemia
  GI50: 7.11 µM
  TGI: > 25 µM
OVCAR-8 ovarian
  GI50: > 25 µM
  TGI: > 25 µM
PC-3 prostate
  GI50: > 25 µM
  TGI: > 25 µM
CCRF-CEM leukemia
  GI50: > 25 µM
  TGI: > 25 µM
786-0 renal
  GI50: > 25 µM
  TGI: > 25 µM
COLO 205 colon
  GI50: > 25 µM
  TGI: > 25 µM
A549 NSCLC
  GI50: > 25 µM
  TGI: > 25 µM
HT29 colon
  GI50: > 25 µM
  TGI: > 25 µM
T-47D breast
  GI50: > 15.6 µM
  TGI: > 25 µM
RXF 393 renal
  GI50: > 25 µM
  TGI: > 25 µM
UACC-62 melanoma
  GI50: > 25 µM
  TGI: > 25 µM
HCC-2998 colon
  GI50: > 25 µM
  TGI: > 25 µM
OVCAR-4 ovarian
  GI50: > 25 µM
  TGI: > 25 µM
HOP-62 NSCLC
  GI50: > 25 µM
  TGI: > 25 µM
UO-31 renal
  GI50: > 25 µM
  TGI: > 25 µM
